Assay results from patent US10683278B2 (JINAN UNIVERSITY, priority 2015, dated 2020).
Read-outs that look alike come from different tables or passages of the source.

What was measured:
Molm-13 cells = assay: Inhibition of proliferation of Molm-13 cells (CCK-8); type: cell-based; conditions: Homo sapiens, 72 h, mean±standard deviation of two independent tests
Method: [Worded in the source for another cell line; this cell line is reported under the same test.] (§1) 12000 g of compounds were centrifuged for 5 min, DMSO was added to make a 10^−2M stock solution, vortexed uniformly and sonicated for 10 min for standby application, and stored at −40° C. The compounds were diluted from the stock solution with saline to 10 times the concentration to be tested (concentration of DMSO in the system being no more than 0.5%) during the test.
(§2) The inhibitory effect of the compounds on the proliferation of MV4-11 cells was detected using a CCK-8 cell counting kit (Dojindo). The specific steps are as follows: the MV4-11 cells in logarithmic growth phase were seeded into a 96-well culture plate at a suitable density in 90 μL/well, cultured overnight, compounds at different concentrations were then added and acted on cells for 72 hr, and the solvent control group (negative control) was set up. The effect of the compounds on cell proliferation was detected using a CCK-8 cell counting kit (Dojindo) after the compounds had acted on the cells for 72 h. 10 μL of CCK-8 reagent was added to each well, same was placed in an incubator at 37° C. for 2-4 hours, and the reading from the full-wavelength microwell plate ELIASA SpectraMax 190 was performed with a wavelength of 450 nm.
(§3) IC50 value was calculated using a software included with ELIASA by the four-parameter regression.
(§4) IC50 for the inhibition of the compounds on each stain of cells was derived from two independent repeated tests, and the results are shown as the mean±standard deviation.

MV4-11 cells = assay: Inhibition of proliferation of MV4-11 cells (CCK-8); type: cell-based; conditions: Homo sapiens, 72 h, mean±standard deviation of two independent tests
Method: as §1, §2, §3, §4

[1] = molecular target: T1, FLT-3 kinase domain recombinant protein (Homo sapiens, UniProt P36888); assay: Inhibition rate on FLT3 kinase (ELISA); type: biochemical; conditions: two values per compound
T1 construct: 50 μL FLT-3 kinase domain recombinant protein diluted with reaction buffer to initiate the reaction
T1 sequence (P36888 610-943 limits assumed): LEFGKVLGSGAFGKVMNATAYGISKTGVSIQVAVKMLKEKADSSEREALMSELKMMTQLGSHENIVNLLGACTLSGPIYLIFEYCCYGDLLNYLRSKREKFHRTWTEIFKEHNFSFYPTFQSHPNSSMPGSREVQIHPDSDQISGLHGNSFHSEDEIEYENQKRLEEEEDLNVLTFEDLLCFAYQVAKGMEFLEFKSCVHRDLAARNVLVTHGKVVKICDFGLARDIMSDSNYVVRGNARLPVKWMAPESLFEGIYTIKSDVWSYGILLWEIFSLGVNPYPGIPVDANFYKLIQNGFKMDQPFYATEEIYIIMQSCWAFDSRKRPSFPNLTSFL
Method: Conventional enzyme-linked immunosorbent assay (ELISA) method is used, and the specific steps are as follows
as §1, with “12,000 g” for “12000 g”, “with DMSO” for “with saline”, “to 100” for “to 10”, “being 1%)” for “being no more than 0.5%)”
1. The enzyme reaction substrate Poly (Glu, Tyr) 4:1 was diluted to 20 μg/mL with potassium-free PBS (10 mM sodium phosphate buffer, 150 mM NaCl, pH 7.2-7.4), the ELISA plate was coated with same in 125 μL/well, and reacted at 37° C. for 12-16 hours, the liquid in wells was discarded, the plate was washed three times, for 5 minutes each time, with T-PBS (potassium-free PBS with 0.1% Tween-20, 200 μL/well), and the ELISA plate was dried in an oven at 37° C. for 1-2 hours.
2. To each well were added 49 μL of ATP solution diluted with reaction buffer (50 mM HEPES pH 7.4, 50 mM MgCl2, 0.5 mM MnCl2, 0.2 mM Na3VO4, 1 mM DTT), 1 μL of compounds to be tested, and 50 μL FLT-3 kinase domain recombinant protein diluted with reaction buffer to initiate the reaction (two ATP-free control wells are required for each experiment). Subject to a shaker (100 rpm) at 37° C. and reacted for 1 hour. The liquid in wells was discarded, and the plate was washed three times with T-PBS.
(§5) 3. Antibody PY99 diluent (the antibody was diluted in 1:500 with T-PBS which contains 5 mg/mL BSA) was added in 100 μL/well, subjected same to a shaker at 37° C. and reacted for 0.5 hour. The liquid in wells was discarded, and the plate was washed three times with T-PBS.
as §5, with “4. Horseradish peroxidase labeled goat anti-mouse secondary antibody” for “3. Antibody PY99”, “1:2000” for “1:500”, “mg/ml” for “mg/mL”
5. 2 mg/ml of OPD developing solution (diluted with 0.1 M citric acid-sodium citrate buffer which contains 0.03% H2O2 (pH=5.4)) was added in 100 μL/well, and reacted at 25° C. in the dark for 1-10 minutes.
6. 2 M H2SO4 was added in 50 μL/well to stop the reaction, and the reading from the wavelength-adjustable microwell plate ELIASA VERSAmax was performed with a wavelength of 490 nm.

AXL kinase = molecular target: T2, AXL kinase (Homo sapiens, UniProt P30530); assay: IC50 test on AXL kinase (Z′-LYTE FRET kinase activity detection); type: biochemical; conditions: for IC50: Z′-LYTE FRET peptide assay, 1 h reaction; for inhibitory activity on AXL kinase: competitive experiment with ATP, in words
T2 construct: purchased Invitrogen PV4803
T2 sequence (P30530 26-894): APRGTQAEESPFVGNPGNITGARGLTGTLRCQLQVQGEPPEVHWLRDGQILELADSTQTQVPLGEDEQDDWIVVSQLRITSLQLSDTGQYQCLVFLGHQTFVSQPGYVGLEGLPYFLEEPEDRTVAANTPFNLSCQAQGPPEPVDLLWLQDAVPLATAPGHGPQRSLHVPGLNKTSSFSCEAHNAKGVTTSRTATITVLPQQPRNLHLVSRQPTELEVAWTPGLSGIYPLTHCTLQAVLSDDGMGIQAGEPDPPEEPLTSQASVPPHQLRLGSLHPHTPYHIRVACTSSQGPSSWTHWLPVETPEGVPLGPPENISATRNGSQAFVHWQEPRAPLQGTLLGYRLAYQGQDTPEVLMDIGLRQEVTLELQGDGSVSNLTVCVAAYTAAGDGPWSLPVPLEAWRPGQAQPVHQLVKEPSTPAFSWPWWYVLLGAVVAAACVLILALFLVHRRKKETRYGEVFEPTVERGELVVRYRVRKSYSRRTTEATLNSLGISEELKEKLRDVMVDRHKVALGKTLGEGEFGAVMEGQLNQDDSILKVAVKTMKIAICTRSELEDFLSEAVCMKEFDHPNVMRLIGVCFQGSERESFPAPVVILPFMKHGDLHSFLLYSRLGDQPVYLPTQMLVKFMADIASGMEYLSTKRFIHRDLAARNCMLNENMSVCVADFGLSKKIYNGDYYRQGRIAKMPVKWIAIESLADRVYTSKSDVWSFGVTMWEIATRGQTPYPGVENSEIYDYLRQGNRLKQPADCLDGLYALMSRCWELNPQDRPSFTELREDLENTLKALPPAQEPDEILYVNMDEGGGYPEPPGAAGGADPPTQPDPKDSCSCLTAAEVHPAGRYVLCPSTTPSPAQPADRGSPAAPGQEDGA
Summary of the method: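 AXL kinase with Z′-LYTE Tyr 2 FRET peptide, ATP and graded compound concentrations reacted 1 h, then site-specific protease cleaved non-phosphorylated peptide for 1 h. Emission at 445 and 520 nm with 400 nm excitation gave the IC50.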

[2] = In vivo pharmacokinetic and bioavailability experiments of rats; set-up: species or system SD rats; conditions: for Cmax: read-out: Cmax
Method: Pharmacokinetic and bioavailability experiments of rats. SD rats were administered orally (25 mg/kg) and intravenously (2.5 to 5 mg/kg) at a single dose. Animal blood samples were taken at appropriate time points after administration, heparin was added as anticoagulant, and same were centrifuged at 8000 rpm/min for 6 minutes, the supernatant was then taken and stored at −20° C. for HPLC-MS analysis. The proteins in blood samples were precipitated with acetonitrile at 12000 rpm for 10 min, and the supernatant was used for HPCL-MS analysis. Data were fit using DAS2.0 to obtain compartmental model and non-compartmental model parameters, respectively. The oral bioavailability of each compound was calculated according to AUC data.

[3] = Sprague-Dawley, rat, plasma, SD rats, Po, 25 mg/kg single dose
[4] = Sprague-Dawley, rat, plasma, SD rats, iv, 5 mg/kg single dose

Q: Which results are given for CC(C)(C)c1cc(NC(=O)Nc2ccc(-c3cn4c(n3)sc3cc(OCCN5CCOCC5)ccc34)cc2)no1 [AC220, reference compound]?
A: IC50 (Molm-13 cells): 19.5 ± 2.7 nM; IC50 (MV4-11 cells): < 2 nM

Q: With CCc1ccc2c(c1)c(=O)c(C(=O)Nc1ccc(Oc3ncnc4cc(OCCN5CCCC5)c(OC)cc34)c(F)c1)c(C)n2C [TL4830058, 6-ethyl-N-(3-fluoro-4-((6-methoxy-7-(2-(pyrrolidin-1-yl)ethoxy)quinazolin-4-yl)oxy)phenyl)-1,2-dimethyl-4-oxo-1,4-dihydroquinoline-3-carboxamide] as the compound, how does the “Inhibition rate (%) against receptor tyrosine kinase FLT-3” value (from here on “Inhibition rate (%)”) ([1]; compound 10 nM, 0.01 µM) read?
A: 49.4%

Q: What about the inhibition at 0.01 µM ([1]; compound 10 nM, read-out: Inhibition rate (%) against receptor tyrosine kinase FLT-3) of the same compound?
A: 54.7%

Q: What about the “Inhibition rate (%)” value ([1]; compound 100 nM, 0.1 µM) of the same compound?
A: 75.8%

Q: What about the inhibition at 0.1 µM ([1]; compound 100 nM, read-out: Inhibition rate (%) against receptor tyrosine kinase FLT-3) of the same compound?
A: 74%

Q: What about the “Inhibition rate (%)” value ([1]; compound 1000 nM, 1 µM) of the same compound?
A: 92.3%

Q: What about the inhibition at 1 µM ([1]; compound 1000 nM, read-out: Inhibition rate (%) against receptor tyrosine kinase FLT-3) of the same compound?
A: 95.2%

Q: And the IC50 (AXL kinase)?
A: 8 nM

Q: What about the “pharmacokinetic parameter, overall judgement” value ([2]; SD rats, hydrochlorides, in words) of the same compound?
A: appropriate pharmacokinetic parameter

Q: And the bioavailability ([2]; Sprague-Dawley, rat, plasma, po, 25 mg/kg, read-out: F (oral bioavailability))?
A: 28%

Q: What about the AUC(0-inf) [2, 3] of the same compound?
A: 50300 ng·h/mL

Q: And the AUC(0-t) [2, 3]?
A: 39700 ng·h/mL

Q: And the half-life [2, 3]?
A: 11 h

Q: And the Cmax [2, 3]?
A: 4090 ng/mL

Q: And the AUC(0-inf) [2, 4]?
A: 28700 ng·h/mL

Q: And the AUC(0-t) [2, 4]?
A: 28400 ng·h/mL

Q: What about the clearance [2, 4] of the same compound?
A: 3 mL/min/kg

Q: What about the half-life [2, 4] of the same compound?
A: 4.05 h

Q: What about the Cmax [2, 4] of the same compound?
A: 13300 ng/mL

Q: Which IC50 (Molm-13 cells) does the source give for CCc1ccc2c(c1)c(=O)c(C(=O)Nc1ccc(Oc3ncnc4cc(OCCCOC)c(OC)cc34)c(F)c1)c(C)n2C [TL4830073, 6-ethyl-N-(3-fluoro-4-((6-methoxy-7-(3-methoxypropoxy)quinazolin-4-yl)oxy)phenyl)-1,2-dimethyl-4-oxo-1,4-dihydroquinoline-3-carboxamide] here?
A: 38.6 ± 18 nM

Q: What about the IC50 (AXL kinase) of the same compound?
A: 5 nM

Q: And the “inhibitory activity on AXL kinase” value (AXL kinase)?
A: strong inhibitory activity

Q: With CCc1ccc2c(c1)c(=O)c(C(=O)Nc1ccc(Oc3ncnc4cc(OC)c(OC)cc34)c(F)c1)c(CC)n2C [TL4830074, N-(4-(6,7-dimethoxyquinazolin-4-yloxy)-3-fluorophenyl)-2,6-diethyl-1-methyl-4-oxo-1,4-dihydroquinoline-3-carboxamide] as the compound, how does the IC50 (Molm-13 cells) read?
A: > 300 nM

Q: What about the IC50 (MV4-11 cells) of the same compound?
A: > 500 nM

Q: And the IC50 (AXL kinase)?
A: 9 nM

Q: And the “inhibitory activity on AXL kinase” value (AXL kinase)?
A: strong inhibitory activity
